Counter-ions that a name gives are not always drawn.
Tested on: person with erectile dysfunction
Assay: Erectile strength rated on a unilinear scale of 1 to 10 in treated patients
Type: in vivo, human
Text: Subsequent discontinuation of Pavabid and Trental and placed on Viagra alone.

How did the erectile strength (Example 1: person, rated 3 before treatment) turn out when `CCCc1nn(C)c2c(=O)[nH]c(-c3cc(S(=O)(=O)N4CCN(C)CC4)ccc3OCC)nc12` [Viagra, sildenafil citrate] was run?
The erectile strength was 7.

And the erectile strength (Example 2: person, rated 2 prior to treatment)?
Its erectile strength is 6.

Source: US20020094988A1, “Method of treating erectile dysfunction” (priority 1999, published 2002)
